Assay results taken from patent publication US20180289678A1, “PHARMACEUTICAL COMPOSITION, PHARMACEUTICAL DOSAGE FORM, PROCESS FOR THEIR PREPARATION, METHODS FOR TREATING AND USES THEREOF” (Boehringer Ingelheim International GmbH, priority 2009, published 2018).

Test: Particle size distribution measurement by laser diffraction
Assay type: physicochemical
Conditions: particle size distribution by volume
Source text: The value X90 refers to the 90% value of the volume distribution measured using a laser diffractometer. In other words, for the purposes of the present invention, the X90 value denotes the particle size below which 90% of the quantity of particles is found based on the volume distribution. Analogously the value X50 refers to the 50% value (median) of the volume distribution measured using a laser diffractometer. In other words, for the purposes of the present invention, the X50 value denotes the particle size below which 50% of the quantity of particles is found based on the volume distribution. Analogously the value X10 refers to the 10% value of the volume distribution measured using a laser diffractometer. In other words, for the purposes of the present invention, the X10 value denotes the particle size below which 10% of the quantity of particles is found based on the volume distribution.
Preferably all X90, X50, X10 values hereinbefore and hereinafter are by volume and determined by laser-diffraction method, in particular low angle laser light scattering, i.e. Fraunhofer diffraction. A preferred test is described in the experimental section. The laser diffraction method is sensitive to the volume of a particle and provides a volume-average particle size, which is equivalent to the weight-average particle size if the density is constant.
3. Particle Size Distribution Measurement by Laser Diffraction
Particle size distribution measurement is performed for example via light scattering or laser diffraction technique. To determine the particle size the powder is fed into a laser diffraction spectrometer for example by means of a dispersing unit. The test method is described below in detail:
Equipment: Laser Diffraction Spectrometer Sympatec HELOS Particle Sizer.
Sample Dispersing Unit: Dry disperser RODOS/M
Feed Velocity: 60.00 mm/s
Primary pressure: 2.00 bar
Injector depression: maximize (mbar)2
Reference Measurement: 10 seconds
Trigger Conditions: Start 0.0 seconds after optical concentration 1% valid always
Stop after 5.0 seconds optical concentration 1% or after 30 seconds real time
Optical Concentration: Approximately range 3-12%
Sample Size: Approximately 100 mg
Number of measurements: 2 (duplicate)
The instrument is set up according to the manufacturer's recommendation and using the manufacturer provided software. The sample container is thoroughly mixed and tumbled prior to removing a portion of the sample to ensure that a representative sample is tested. Duplicate samples are prepared by using a spatula to transfer approximately 100 mg of a sample into the ASPIROS glass vials and cap the vials. The capped cials are placed into the feeder.

Structure (SMILES)	X10	X50	X90
OC[C@H]1O[C@@H](c2ccc(Cl)c(Cc3ccc(O[C@H]4CCOC4)cc3)c2)[C@H](O)[C@@H](O)[C@@H]1O [Active substance Batch 1]	1.8 μm	18.9 μm	45.3 μm
OC[C@H]1O[C@@H](c2ccc(Cl)c(Cc3ccc(O[C@H]4CCOC4)cc3)c2)[C@H](O)[C@@H](O)[C@@H]1O [Active substance Batch 2]	1.7 μm	12.1 μm	25.9 μm
